Measurements published in patent publication EP1982730A1, “Pharmaceutical composition comprising l-carnitine and an antagonist of the membrane adenosine receptors, derivatives and/or pharmaceutically acceptable salts thereof, and their use in the preparation of drugs with non-toxic effect to inhibit the proliferation of neoplastic cells” (Farmacetika Limited, priority 2007, dated 2008).

Key:
[1] = system: human peripheral blood mononuclear cells (PBMCs) in healthy volunteers; settings: lymphocytes from healthy volunteers stimulated with PHA; cited from earlier work
[2] = system: peripheral blood mononuclear cells (PBMC) from patients affected by chronic lymphocytic leukemia; test: PHA-induced cell blast formation / proliferation (BrdU incorporation ELISA) in ex vivo PBMC cultures; assay type: cell-based, human; settings: for % reduction in cell blast formation: PBMC stimulated with PHA 20 ug/mL
Excerpt: The protocol for isolation and treatment of cells from patients affected by chronic lymphocytic leukemia comprised the following steps:
• Blood sample taken between 8:00 and 9:30 a.m.; • Blood sample sent to the laboratory to be processed immediately; • Evaluation of the total volume of the blood received to proceed with 1:2 dilution with sterile saline solution; • Isolation of the mononuclear cells performed by layering of the blood on a Ficoll-Paque Plus density gradient at a ratio of 1:3, ensuring that the two phases remain separate; • Centrifugation for 40 minutes at 1800 rpm at room temperature; • Recovery of the PBMC layers in the interface between the Ficoll and the plasma; • Washing in saline solution to eliminate residual Ficoll centrifuging at 1200 rpm for 7 minutes at 4°C; • Washing in RPM1 1640 medium, centrifuging at 1200 rpm for 7 minutes at 4°C; • Pellet suspension in complete medium, i.e. RPM1 1640 with the addition of L-glutamine 4mM, penicillin at 50U/ml, streptomycin […] and with 10% of FBS (fetal bovine serum); • Preparation of a 10% cell suspension with Trypan Blue dye and counting of cells under the microscope with Burker camera; cell vitality is also checked using the dye exclusion test; • Counting of the total number of cells and adjustment of the cell concentration to the required value.
The cells thus isolated were cultured in the complete culture medium, and a culture was prepared placing 1 mL of cell suspension in a 5 mL polypropylene […] (Falcon) to study cytokine expression and production, and 100 microL in each microplate well. To induce cell blast formation, mitogen phytohemagglutinin (PHA) (20 ug/mL (Pharmacia) selective for T-lymphocytes was added.
The control culture was prepared without adding any mitogenic substance.
The substance to be tested, i.e. L-carnitine and L-carnitine + suramin, at the desired concentration, was added both to cultures with and to those without mitogen. The cultures were incubated in an incubator at 37°C, in a humidified environment with 5% carbon dioxide added.
Evaluation of cell proliferation and therefore of DNA synthesis by isolated and cultured PBMC was performed after stimulation with mitogen and using the Biotrak ELISA system (Amersham Biosciences Europe GmbH, Milan, Italy), based on the measure of incorporation of 5-bromo-2-deoxyuridine (BrdU), pyrimidine analog, into the newly synthesized DNA. 18 hours before the end of incubation 10 microl of culture medium containing BrdU at a final concentration of 10 micromol/L were added to the cultures. At the end of incubation the culture medium was removed by centrifuging the plates at 300 rpm for 10 minutes. Subsequently, the plates were kept in an oven at 60°C for one hour. This was followed by two incubations of 30 minutes each, first in the presence of a fixative required for cell fixation and DNA denaturation, then in the presence of a blocking buffer. After addition of the anti-BrdU antibody, combined with the enzyme peroxidase, the plates were incubated for 90 minutes, after which three washes of 5 minutes each were performed, using PBS. The substrate used for the colorimetric reaction consisted of 3,3',5,5'-tetramethylbenzidine. The reaction was blocked after 15 minutes with H2SO4 1M and the optical density was measured at a wavelength of 450 nanometers, using a plate reader spectrophotometer. The PBMC proliferation values in the different wells were expressed as optical density from which the optical density recorded in the control wells without BrdU was subtracted.

Which “blastogenesis of T lymphocytes caused by phytohemagglutinin (PHA)” value [1] does the source give for `C[N+](C)(C)C[C@H](O)CC(=O)[O-]` [Carnitine, L-carnitine] here?
Its value is “inhibits, in a dose-dependent manner”.

And the “% reduction in cell blast formation” value ([2]; Patient 1, I.S. 1.9)?
Its value is 30%.

And the “% reduction in cell blast formation” value ([2]; Patient 2, I.S. 3.4)?
The value was 65%.

And the “% reduction in cell blast formation” value ([2]; Patient 3, I.S. 4.4)?
Its value is 40%.

What about the “% reduction in cell blast formation” value ([2]; Patient 4, I.S. 1.6) of the same compound?
Its value is 24.4%.

And the “% reduction in cell blast formation” value ([2]; Patient 5, I.S. 2.3)?
The value was 16.5%.

What about the “proliferation induced with PHA” value ([2]; all patients, summary in words) of the same compound?
The value was “reduces the proliferation induced with PHA in all patients”.
